We go through 6 compounds from US7766979B2, “Phase transformation in molecular solids” (Avantium International B.V., priority 2004, dated 2010).

Where two headings read alike, the source gives them in different places.

The nature of data set [1]: tribochemical treatment (high-energy grinding) with phase detection by X-ray powder diffractometry. It is filed as physicochemical. The following applies: for phase transformation achieved by the process (summary statement): Fritsch Pulverisette 7, hardened steel, as a solid. Here is the method: The detection of the particular modification/form was conducted with X-ray powder diffractometry: X-ray diffractometer: SToe STADI P transmission diffractometer, CuKα1: 1.54060 Å, linear position-sensitive detector, measurement range 5-40°2Theta, step width 0.01°2Theta, measurement time 960 sec/step.
High-energy mill: Fritsch Pulverisette 7;
Grinding cup: hardened steel, volume 10 ml; […]
Temperature control: no temperature control […]
Amount of substance: 1.0 g

For data set [2] the following is noted: cited from earlier work; for phase transformation under mechanical stress (grinding, pressure): conventional grinding or pressure, literature.
The conditions of data set [3]: cited from earlier work; for temperature of conversion to the other polymorph: on heating.
The conditions of data set [4]: compared with form 1; cited from earlier work.

On to `CCCNC(=O)NS(=O)(=O)c1ccc(Cl)cc1` [Chlorpropamide form A, Chlorpropamide], for which the “phase found after tribochemical treatment” value (“phase found” below) in data set [1] (Experiment 3.1: 1.0 g, 800 rpm, 1 hour) was “partial transformation to form C”. Also, the “phase transformation achieved by the process (summary statement)” value (“phase transformation achieved” for short) in data set [1] (listed as form A) is “partly to form C”. In data set [2] (listed as form A), the “phase transformation under mechanical stress (grinding, pressure)” value (“phase transformation … (grinding, pressure)” below) is given as “detectable phase transformations under none of the mechanical stresses listed”.
Regarding `CCCNC(=O)NS(=O)(=O)c1ccc(Cl)cc1` [Chlorpropamide form C, Chlorpropamide], the “phase found” value in data set [1] (Experiment 3.2: 1.0 g, 800 rpm, 15 minutes) is on record as “clearly perceptible incipient transformation to form A”; in data set [1] (Experiment 3.3: 1.0 g, 800 rpm, 60 minutes), “transformed fully to form A”. In data set [1] (listed as form C), the “phase transformation achieved” value is “fully to form A”. The “thermodynamic stability of the phase” value in data set [3] (at room temperature (acetazolamide)) is “metastable”. Further, the “phase transformation … (grinding, pressure)” value in data set [2] (listed as form C) was “partial phase transformation to form A”.
In the case of `CC(=O)Nc1nnc(S(N)(=O)=O)s1` [polymorph 1 of acetazolamide, 5-Acetamido-1,3,4-thiadiazole-2-sulfonamide], the “phase transformation … (grinding, pressure)” value in data set [2] (listed as polymorph 1) is given as “not converted back to polymorph 2”. In addition, the “storage period without conversion back to polymorph 2” value in data set [2] (storage) is listed as “over 5 years”.
`CC(=O)Nc1nnc(S(N)(=O)=O)s1` [polymorph 2 of acetazolamide, 5-Acetamido-1,3,4-thiadiazole-2-sulfonamide]: the “phase found” value was “converted virtually fully to polymorph 1” in data set [1] (Experiment 2.1: 1.0 g, 800 rpm, 1 hour); “attributable to the polymorph 2 used” in data set [1] (Experiment 2.2: 1.0 g, 800 rpm, 5 minutes); “polymorph 1 is isolated” in data set [1] (Experiment 2.3: 1.0 g, 800 rpm, 30 minutes); “polymorph 1 is likewise isolated” in data set [1] (Experiment 2.4: 1.0 g, 800 rpm, 45 minutes); “attributable to the polymorph 2 used” in data set [1] (Experiment 2.5: 1.0 g, 400 rpm, 30 minutes); “no phase transformation is observed” in data set [1] (Experiment 2.6: 1.0 g, 400 rpm, 60 minutes). Further, the “phase transformation achieved” value in data set [1] is “virtually full transformation of polymorph 2 to polymorph 1”. Also, the “temperature of conversion to the other polymorph” value in data set [3] was 120-148 °C. In data set [2] (listed as polymorph 2), the “phase transformation … (grinding, pressure)” value was “Nor has the transformation of polymorph 2 to polymorph 1 under mechanical stress been observed”.
In the case of `Cc1ccnc(NS(=O)(=O)c2ccc(N)cc2)n1` [sulfamerazine form 1, 2-Sulfanilamido-4-methylpyrimidine], the “phase found” value was “Virtually full conversion of form 1 to the desired form 2” in data set [1] (Example 1.1: 1.0 g, normal atmosphere, 800 rpm, 1 hour, no temperature control); “still attributable to form 1” in data set [1] (Example 1.2: 1.0 g, normal atmosphere, 800 rpm, 5 minutes); “still attributable to form 1” in data set [1] (Example 1.3: 1.0 g, normal atmosphere, 800 rpm, 15 minutes); “all of which are attributable to form 2” in data set [1] (Example 1.4: 1.0 g, normal atmosphere, 800 rpm, 30 min); “those of form 1” in data set [1] (Example 1.5: 10.0 g, 7 balls, 40 ml grinding cup, 800 rpm, 15 minutes); “all of which are attributable to form 2” in data set [1] (Example 1.6: 10.0 g, 7 balls, 40 ml grinding cup, 800 rpm, 30 min). Further, the “phase found” value in data set [1] (Example 1.7: 15.0 g, 2 balls, 40 ml grinding cup, 800 rpm, 120 and 180 min) is reported as “formation of form 2”. Moreover, the “phase transformation achieved” value in data set [1] was “fully to form 2”. In data set [2], the “phase transformation … (grinding, pressure)” value is “neither polymorphic form undergoes a transformation”.
In the case of `Cc1ccnc(NS(=O)(=O)c2ccc(N)cc2)n1` [sulfamerazine form 2, 2-Sulfanilamido-4-methylpyrimidine], the “temperature of conversion to the other polymorph” value in data set [3] is “about 170 °C”. In data set [4], the hygroscopicity result is “less hygroscopic” and the “release of the active ingredient” value is “releases the sulfamerazine better”.
